≈ marks a conversion by molar mass, not a printed value.
Experiments:
[1] = target: DNA topoisomerase II (Homo sapiens, UniProt P11388+Q02880); assay: Inhibitory activity against mammalian DNA topoisomerase II; type: protein assay
[2] = test system: Enterobacter cloacae; assay: Minimum inhibitory concentration against Enterobacter cloacae AE63; type: functional
[3] = test system: Escherichia coli; assay: Minimum inhibitory concentration against Escherichia coli DC0; type: functional
[4] = test system: Escherichia coli; assay: Minimum inhibitory concentration against Escherichia coli DC2; type: functional
[5] = test system: Enterococcus faecium; assay: Minimum inhibitory concentration against Enterococcus faecium (VR; Vancomycin resistant) EF12; type: functional
[6] = test system: Enterococcus faecium; assay: Minimum inhibitory concentration against Enterococcus faecium (VS; Vancomycin sensitive) EF1; type: functional
[7] = test system: Klebsiella pneumoniae; assay: Minimum inhibitory concentration against Klebsiella pneumoniae (CR; Ciprofloxacin resistant) KL328; type: functional
[8] = test system: Klebsiella pneumoniae; assay: Minimum inhibitory concentration against Klebsiella pneumoniae KL21; type: functional
[9] = test system: Moraxella catarrhalis; assay: Minimum inhibitory concentration against Moraxella catarrhalis MC2; type: functional
[10] = test system: Pseudomonas aeruginosa; assay: Minimum inhibitory concentration against Pseudomonas aeruginosa PS96; type: functional
[11] = test system: Proteus mirabilis; assay: Minimum inhibitory concentration against Proteus mirabilis PR91; type: functional
[12] = test system: Staphylococcus epidermidis; assay: Minimum inhibitory concentration against Staphylococcus epidermidis (MSCR; Methicillin sensitive, ciprofloxacin resistant) SE48; type: functional
[13] = test system: Streptococcus pyogenes; assay: Minimum inhibitory concentration against Streptococcus pyogenes STA2; type: functional
[14] = test system: Staphylococcus aureus; assay: Minimum inhibitory concentration against Staphylococcus aureus (MSCS; Methicillin sensitive, ciprofloxacin sensitive) MI273; type: functional
[15] = test system: Streptococcus pneumoniae; assay: Minimum inhibitory concentration against Streptococcus pneumoniae (PR; Penicillin resistant) STP51; type: functional
[16] = test system: Staphylococcus aureus; assay: Minimum inhibitory concentration against Staphylococcus aureus (MRCS; Methicillin resistant, ciprofloxacin sensitive) MI300; type: functional
[17] = test system: Streptococcus pneumoniae; assay: Minimum inhibitory concentration against Streptococcus pneumoniae (PS; Penicillin sensitive) STP6301; MIC (ug/mL) No growth; type: functional, organism-based
[18] = test system: Streptococcus viridans; assay: Minimum inhibitory concentration against Streptococcus viridans STV1; type: functional
[19] = test system: Staphylococcus aureus; assay: Minimum inhibitory concentration against Staphylococcus aureus (MSCR; Methicillin sensitive, ciprofloxacin resistant) MI345; type: functional
[20] = test system: Staphylococcus aureus; assay: Minimum inhibitory concentration against Staphylococcus aureus (MSCS; Methicillin sensitive, ciprofloxacin sensitive) MI246; type: functional
[21] = test system: Staphylococcus saprophyticus; assay: Minimum inhibitory concentration against Staphylococcus saprophyticus SS276; type: functional
[22] = test system: Escherichia coli; assay: Minimum inhibitory concentration against Escherichia coli ES142; type: functional
[23] = target: DNA gyrase (Escherichia coli); assay: Inhibitory activity against wild type gyrase in Escherichia coli
[24] = test system: Enterococcus faecalis; assay: Minimum inhibitory concentration against Enterococcus faecalis STD44
[25] = target: DNA gyrase (Escherichia coli); assay: Inhibitory activity against quinolone resistant gyrase in Escherichia coli
[26] = test system: Staphylococcus aureus; assay: Minimum inhibitory concentration against Staphylococcus aureus (MRCR; Methicillin resistant, ciprofloxacin resistant) MI339
[27] = test system: Enterococcus faecium; assay: Minimum inhibitory concentration against Enterococcus faecium (VR; Vancomycin resistant) EF12; MIC (ug/mL) No growth; type: functional, organism-based
[28] = test system: Streptococcus pneumoniae; assay: Minimum inhibitory concentration against Streptococcus pneumoniae (PS; Penicillin sensitive) STP6301; type: functional
[29] = test system: Streptococcus pneumoniae; assay: Minimum inhibitory concentration against Streptococcus pneumoniae PS; Penicillin sensitive) STP64; type: functional
[30] = test system: Enterococcus faecalis; assay: Minimum inhibitory concentration against Enterococcus faecalis STD44; MIC (ug/mL) No growth
[31] = test system: Enterobacter cloacae; assay: Minimum inhibitory concentration against Enterobacter cloacae AE63; MIC (ug/mL) No growth; type: functional, organism-based

| SMILES | IC50 [1] | MIC [2] | MIC [3] | MIC [4] | MIC [6] | MIC [7] | MIC [8] | MIC [9] | MIC [10] | MIC [11] | MIC [12] | MIC [13] | MIC [14] | MIC [16] | MIC [18] | MIC [19] | MIC [20] | MIC [21] | MIC [22] | MIC [26] | other results |
| --- | --- | --- | --- | --- | --- | --- | --- | --- | --- | --- | --- | --- | --- | --- | --- | --- | --- | --- | --- | --- | --- |
| C[C@H](N)[C@@H]1CCN(c2ccc3c(=O)c(C(=O)O)cn4c3c2OC[C@@H]4C)C1 | 38 mg/L (≈ 106 µM) | 0.125 mg/L (≈ 0.35 µM) | 2 mg/L (≈ 5.6 µM) | 0.063 mg/L (≈ 0.176 µM) | 1 mg/L (≈ 2.8 µM) | > 8 mg/L | 0.016 mg/L (≈ 0.0448 µM) | 0.125 mg/L (≈ 0.35 µM) | 1 mg/L (≈ 2.8 µM) | 2 mg/L (≈ 5.6 µM) | 1 mg/L (≈ 2.8 µM) | 0.016 mg/L (≈ 0.0448 µM) | 0.125 mg/L (≈ 0.35 µM) | 0.063 mg/L (≈ 0.176 µM) | 0.125 mg/L (≈ 0.35 µM) | 1 mg/L (≈ 2.8 µM) | 0.031 mg/L (≈ 0.0867 µM) | 0.125 mg/L (≈ 0.35 µM) | 0.5 mg/L (≈ 1.4 µM) | 2 mg/L (≈ 5.6 µM) | MIC [5]: 1 mg/L (≈ 2.8 µM); MIC [15]: 0.063 mg/L (≈ 0.176 µM); MIC [17]: No growth; IC50 [23]: 6.4 mg/L (≈ 17.9 µM); MIC [24]: 0.031 mg/L (≈ 0.0867 µM); IC50 [25]: 51.2 mg/L (≈ 143 µM) |
| C[C@H]1COc2c(N3CCC[C@H](N)C3)ccc3c(=O)c(C(=O)O)cn1c23 | > 500 mg/L | 0.25 mg/L (≈ 0.728 µM) | 16 mg/L (≈ 46.6 µM) | 2 mg/L (≈ 5.82 µM) | > 32 mg/L | > 32 mg/L | 0.25 mg/L (≈ 0.728 µM) | 2 mg/L (≈ 5.82 µM) | > 32 mg/L | 2 mg/L (≈ 5.82 µM) | > 32 mg/L | > 32 mg/L | 4 mg/L (≈ 11.6 µM) | 2 mg/L (≈ 5.82 µM) | > 32 mg/L | > 32 mg/L | 2 mg/L (≈ 5.82 µM) | 16 mg/L (≈ 46.6 µM) | 1 mg/L (≈ 2.91 µM) | > 32 mg/L | MIC [27]: No growth; MIC [28]: > 32 mg/L; MIC [29]: > 32 mg/L; IC50 [23]: 63 mg/L (≈ 183 µM); IC50 [25]: > 500 mg/L; MIC [30]: No growth |
| C[C@H]1COc2c(N3CCN(C)CC3)c(F)cc3c(=O)c(C(=O)O)cn1c23.C[C@H]1COc2c(N3CCN(C)CC3)c(F)cc3c(=O)c(C(=O)O)cn1c23.O [LEVOFLOXACIN] | – | 0.008 mg/L | 0.25 mg/L | 0.25 mg/L | 0.25 mg/L | 4 mg/L | < 0.004 mg/L | 0.03 mg/L | 0.5 mg/L | 0.06 mg/L | 2 mg/L | 0.5 mg/L | 0.12 mg/L | 0.12 mg/L | 0.25 mg/L | 2 mg/L | 0.12 mg/L | 0.12 mg/L | – | 2 mg/L | MIC [5]: 1 mg/L; MIC [24]: 0.25 mg/L |
| C[C@H]1COc2c(N3CCN(C)CC3)ccc3c(=O)c(C(=O)O)cn1c23 | 250 mg/L (≈ 728 µM) | – | > 32 mg/L | 16 mg/L (≈ 46.6 µM) | > 32 mg/L | > 32 mg/L | 1 mg/L (≈ 2.91 µM) | 4 mg/L (≈ 11.6 µM) | > 32 mg/L | 8 mg/L (≈ 23.3 µM) | > 32 mg/L | 4 mg/L (≈ 11.6 µM) | 8 mg/L (≈ 23.3 µM) | 4 mg/L (≈ 11.6 µM) | 32 mg/L (≈ 93.2 µM) | > 32 mg/L | 4 mg/L (≈ 11.6 µM) | 4 mg/L (≈ 11.6 µM) | 8 mg/L (≈ 23.3 µM) | > 32 mg/L | MIC [31]: No growth; MIC [27]: No growth; MIC [15]: 32 mg/L (≈ 93.2 µM); MIC [28]: 16 mg/L (≈ 46.6 µM); MIC [29]: 16 mg/L (≈ 46.6 µM); IC50 [23]: 31 mg/L (≈ 90.3 µM); IC50 [25]: > 500 mg/L; MIC [30]: No growth |
| C[C@H]1COc2c(N3CC[C@@H](C(C)(C)N)C3)ccc3c(=O)c(C(=O)O)cn1c23 | 150 mg/L (≈ 404 µM) | 0.25 mg/L (≈ 0.673 µM) | 4 mg/L (≈ 10.8 µM) | 0.125 mg/L (≈ 0.337 µM) | 1 mg/L (≈ 2.69 µM) | > 8 mg/L | 0.031 mg/L (≈ 0.0835 µM) | 0.063 mg/L (≈ 0.17 µM) | 4 mg/L (≈ 10.8 µM) | 4 mg/L (≈ 10.8 µM) | 1 mg/L (≈ 2.69 µM) | 0.016 mg/L (≈ 0.0431 µM) | 0.125 mg/L (≈ 0.337 µM) | 0.063 mg/L (≈ 0.17 µM) | 1 mg/L (≈ 2.69 µM) | 2 mg/L (≈ 5.38 µM) | 0.063 mg/L (≈ 0.17 µM) | 0.031 mg/L (≈ 0.0835 µM) | 0.5 mg/L (≈ 1.35 µM) | 2 mg/L (≈ 5.38 µM) | MIC [5]: 1 mg/L (≈ 2.69 µM); MIC [15]: 0.5 mg/L (≈ 1.35 µM); MIC [28]: 0.016 mg/L (≈ 0.0431 µM); IC50 [23]: 3.2 mg/L (≈ 8.62 µM); MIC [24]: 0.125 mg/L (≈ 0.337 µM); IC50 [25]: > 102 mg/L |
